Assay results taken from the supplement of paper PMC8671470.

What was measured:
Details in all cases: 72 h
MV4-11 [1] = test system: MV4-11
Procedure, shortened: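 In 384-well plates holding acoustically pre-printed compounds at five tenfold doses from 1 to 10,000 nM, in duplicate, fifteen myeloid leukaemia cell lines were grown in RPMI 1640 for 72 h at 37 °C with 5% CO2. Luminescent ATP viability was scaled between vehicle and a positive control at 10 µM. The IC50 was then taken from log-logistic dose–response fits with four parameters.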

HL-60 [2] = assay: cell viability (% survival relative to DMSO control); higher = less cytotoxic
Procedure, shortened: (§1)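 In 384-well plates, the full library was rescreened in duplicate on HL-60 cells in RPMI 1640 with 10% FBS, at 1–10,000 nM in five tenfold concentrations, for 72 h at 37 °C, 5% CO2. Each run also held DMSO or 100 nM of one of three metabolic inhibitors. Viability was measured by CellTiter-Glo and normalised to DMSO wells and to wells with proteasome inhibitor, present at 10 μM. Any area under the curve comes from four-parameter log-logistic fitting with drc and PharmacoGx.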

BV-173 = assay: cell viability (% survival relative to DMSO control, bortezomib = 0%); higher = less cytotoxic
Procedure, shortened: (§2)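 Reported values are percent survival from duplicate wells, averaged. Fifteen myeloid leukaemia cell lines were treated in 384-well plates with compounds at 1, 10, 100, 1000 or 10000 nM for 72 h at 37 °C in 5% CO2. Signals from CellTiter-Glo luminescence were scaled with vehicle as 100% and a 10 µM positive control as 0%.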

HEL = assay: as above
Procedure, shortened: as §2

HL-60 [3] = assay: as above
Procedure, shortened: as §2

K-562 = assay: as above
Procedure, shortened: as §2

KCL-22 = assay: as above
Procedure, shortened: as §2

KG-1 = assay: as above
Procedure, shortened: as §2

KU-812 = assay: as above
Procedure, shortened: as §2

LAMA-84 = assay: as above
Procedure, shortened: as §2

ML-2 = assay: as above
Procedure, shortened: as §2

MOLM-13 = assay: as above
Procedure, shortened: as §2

MV4-11 [4] = assay: as above
Procedure, shortened: as §2

Mono-Mac-6 = assay: as above
Procedure, shortened: as §2

NOMO-1 = assay: as above
Procedure, shortened: as §2

SHI-1 = assay: as above
Procedure, shortened: as §2

THP-1 = assay: as above
Procedure, shortened: as §2

HL-60 [5] = assay: area under dose-response curve (viability, 1 nM-10 uM) (fraction (0-1)); higher = more sensitive
Procedure, shortened: as §1

CN1CC(=O)N2[C@H](c3ccc4c(c3)OCO4)c3[nH]c4ccccc4c3C[C@@H]2C1=O [Tadalafil]
Details	IC50 (cell viability) [µM]
MV4-11 [1]	> 10

cell viability [%], HL-60 [2]
Details	0.001 µM	0.01 µM	0.1 µM	1 µM	10 µM
co-treatment: AZD3965 100 nM	104	105.1	97.6	104	109
co-treatment: DMSO vehicle	100.5	103	98	100	112
co-treatment: GSK2194069 100 nM	101.9	106	102	105	95.2
co-treatment: pictilisib 100 nM	99.6	94.8	96.9	93.4	89.9

Details	area under dose-response curve, co-treatment: AZD3965 100 nM	area under dose-response curve, co-treatment: DMSO vehicle	area under dose-response curve, co-treatment: GSK2194069 100 nM	area under dose-response curve, co-treatment: pictilisib 100 nM	cell viability, 1 nM [%]	cell viability, 10 nM [%]	cell viability, 100 nM [%]	cell viability, 1000 nM [%]	cell viability, 10000 nM [%]
BV-173	–	–	–	–	95.5	87	89.6	96.8	88.3
HEL	–	–	–	–	103	77.5	93.1	98	94.7
HL-60 [3]	–	–	–	–	106	75.2	107	72.9	117
HL-60 [5]	< 0.0301	< 0.0301	< 0.0301	< 0.0301	–	–	–	–	–
K-562	–	–	–	–	108	105	90.6	96.4	91
KCL-22	–	–	–	–	103	89.2	92	101	81.7
KG-1	–	–	–	–	107	98.4	99.8	103	99.4
KU-812	–	–	–	–	98.8	87.8	99.2	106	96
LAMA-84	–	–	–	–	101	97.9	96.8	102	103
ML-2	–	–	–	–	95.6	94.1	92	101	94.9
MOLM-13	–	–	–	–	106	85.3	98.4	97.9	73.3
MV4-11 [4]	–	–	–	–	100	86.7	95.3	102	92.6
Mono-Mac-6	–	–	–	–	99.8	93	94.8	95.4	99
NOMO-1	–	–	–	–	97.8	95.1	96.6	105	108
SHI-1	–	–	–	–	109	102	98.9	97.8	88.3
THP-1	–	–	–	–	96.7	97.9	94.9	98.4	96.6
